Assay results reported in PubChem BioAssay (NCI).
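Tested at 5 concentrations; 48 h exposure; 96-well plates; endpoints linearly interpolated, else capped at highest concentration. At the GI50, growth is halved. TGI marks complete inhibition of growth.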

Columns and labels:
Assay in all cases: inhibition of tumour cell growth, NCI panel, 48 h
RPMI-8226 leukemia = tested on: RPMI-8226 leukemia
A549 NSCLC = tested on: A549 NSCLC
OVCAR-3 ovarian = tested on: OVCAR-3 ovarian
LOX IMVI melanoma = tested on: LOX IMVI melanoma
SK-MEL-5 melanoma = tested on: SK-MEL-5 melanoma
IGROV1 ovarian = tested on: IGROV1 ovarian
SF-268 CNS = tested on: SF-268 CNS
TK-10 renal = tested on: TK-10 renal
SK-MEL-2 melanoma = tested on: SK-MEL-2 melanoma
OVCAR-5 ovarian = tested on: OVCAR-5 ovarian

| Structure (SMILES) | TGI (RPMI-8226 leukemia) [µM] | TGI (A549 NSCLC) [µM] | TGI (OVCAR-3 ovarian) [µM] | TGI (LOX IMVI melanoma) [µM] | TGI (SK-MEL-5 melanoma) [µM] | TGI (IGROV1 ovarian) [µM] | TGI (SF-268 CNS) [µM] | TGI (TK-10 renal) [µM] | TGI (SK-MEL-2 melanoma) [µM] | TGI (OVCAR-5 ovarian) [µM] | GI50 (RPMI-8226 leukemia) [nM] | GI50 (A549 NSCLC) [µM] | GI50 (OVCAR-3 ovarian) [nM] | GI50 (LOX IMVI melanoma) [nM] | GI50 (SK-MEL-5 melanoma) [nM] | GI50 (IGROV1 ovarian) [nM] | GI50 (SF-268 CNS) [nM] | GI50 (TK-10 renal) [µM] | GI50 (SK-MEL-2 melanoma) [nM] | GI50 (OVCAR-5 ovarian) [µM] |
| --- | --- | --- | --- | --- | --- | --- | --- | --- | --- | --- | --- | --- | --- | --- | --- | --- | --- | --- | --- | --- |
| COc1ccc(OC)c(NC(=O)C2=C(C)NC(C)=C(C(=O)Nc3cc(OC)ccc3OC)C2c2ccccc2)c1 | > 100 | > 100 | > 100 | > 100 | > 100 | > 100 | > 100 | > 100 | > 100 | > 100 |  |  |  |  |  |  |  |  |  |  |
| Cc1ccc(C(=O)c2nnc(C(=O)c3ccc(C)cc3)nn2)cc1 | > 100 | > 100 | > 100 | 35.6 | > 100 | > 100 | 55.4 | > 100 | > 100 | > 100 |  |  |  |  |  |  |  |  |  |  |
| COc1ccc2c(c1)cn1c3ccc(O)cc3nc(N)c21 | 12.8 | 4.22 | 2.39 | 1.94 | 3.95 | 6.59 | 7.24 | 5.6 | 5.14 | 18.3 | 1750 | 0.174 | 75.7 | 71.2 | 76.2 | 176 | 238 | 1.13 | 270 | 1.57 |
| Cc1ccc(NC(=O)C(=O)C(C#N)c2ccccc2C)cc1C (centres undefined) | > 100 | > 100 | > 100 | > 55.3 | > 100 | > 100 | > 100 | > 100 | > 100 | > 100 |  |  |  |  |  |  |  |  |  |  |
| NC1C[C@H](n2cc(/C=C/Br)c(=O)[nH]c2=O)C[C@@H]1CO (some centres undefined) | > 100 |  | > 100 | > 100 |  |  | > 100 | > 100 |  |  |  |  |  |  |  |  |  |  |  |  |
| C[C@@H]1C[C@H]2CC[C@H](O2)[C@H](C)C(=O)O[C@@H](C)C[C@@H]2CC[C@@H](O2)[C@@H](C)C(=O)O[C@H](C)C[C@H]2CC[C@H](O2)[C@H](C)C(=O)O[C@@H](C)C[C@@H]2CC[C@@H](O2)[C@@H](C)C(=O)O1 |  | > 100 | > 40.1 | 2.82 | 0.401 | 32.4 | > 51.4 | > 48.5 | 3.34 | > 100 |  |  |  |  |  |  |  |  |  |  |
| O=C1CC(c2ccc(O)cc2)C2(O1)C(=O)OC(C(O)CO)C2O (centres undefined) | > 100 |  | > 100 | > 100 | > 100 | > 100 | > 100 | > 100 | > 100 | > 100 |  |  |  |  |  |  |  |  |  |  |
| O=[N+]([O-])C1C2C=CC(C2)[C@H]1c1ccco1 (some centres undefined) |  | > 100 | > 100 | > 100 | > 100 | > 100 | > 100 | > 100 | > 100 | > 100 |  |  |  |  |  |  |  |  |  |  |
| O=C(O)/C=C\C(=O)N1C/C(=C\c2ccccc2Cl)C(=O)/C(=C/c2ccccc2Cl)C1 | 10.3 | 13 | 5.51 | 3.71 | 12 | 11.2 | 3.54 | 12.3 | 8.33 |  | 1350 | 3.01 | 2400 | 1560 | 3030 | 3660 | 1670 | 4.47 | 3080 |  |
| COc1ccc(-c2csc(N(C(=O)N3CCN(c4cc5c(cc4F)c(=O)c(C(=O)O)cn5C4CC4)CC3)c3ccccc3)n2)cc1 |  | 12.1 |  |  | 8.39 | > 100 | > 100 | 39.9 | 5.22 | > 100 |  | 3.01 |  |  | 2860 | 1210 | 3200 | 1.7 | 2200 | 3.29 |
| CC1SC2=NC3=C(c4ccccc4C3=O)C(c3ccc(F)cc3)N2C1=O (centres undefined) | > 100 | > 100 | > 100 |  | > 100 | > 100 | > 100 | > 100 | > 100 | > 100 |  |  |  |  |  |  |  |  |  |  |
| CN(C)CCNc1c2c(c(NCCN(C)C)c3[nH]ccc13)C(=O)c1ccccc1C2=O | 2.79 | 13.3 | 6.59 | 3.39 | 3.88 | > 100 | 5.91 | 5.14 |  | 13 | 737 | 0.748 | 639 | 737 | 1810 | 1190 | 1390 | 1.57 |  | 2.1 |
| COc1ccc(-c2nn3c(-c4cc(F)c(Cl)cc4Cl)nnc3s2)cc1 | 52.7 | > 100 | 66.7 | > 100 | 44.7 |  | > 100 | > 100 | 60.1 | 88.9 | 19600 | 39.1 | 20400 | 26400 | 17600 |  | 19700 | 56.5 | 25400 | 25.5 |
| CC(C)[C@H]1CO[C@]2(C)[C@@H]3CN(Cc4ccccc4)C[C@@H]3C(=O)N12 | > 100 | > 100 | > 100 |  | > 100 | > 100 | > 100 | > 100 | > 100 |  |  |  |  |  |  |  |  |  |  |  |
| COc1cc(/C=C/c2cc(O)c3cc(C(C)=O)c(=O)oc3c2)cc2c1O[C@]1(C)CC[C@@H](O)C(C)(C)[C@H]1C2 |  | > 53.2 | > 89.1 | > 42.2 |  | > 66.1 | > 56.4 | > 77.7 | > 45.8 | > 86 |  | > 24.2 | > 33100 |  |  | > 25900 | > 21400 | > 42.7 |  | > 36.5 |
| COC(C(=O)[O][Ge]([CH3])([CH3])[CH3])c1ccccc1 (centres undefined) | > 100 | > 100 | > 100 | > 100 | > 100 | > 100 | > 100 | > 100 |  | > 100 | > 100000 | > 100 | > 100000 | > 100000 | > 100000 | > 100000 | > 100000 | > 100 |  | > 100 |
